Where two headings read alike, the source gives them in different places. Bounds are passed on as bounds.

Consider nine compounds from WO2019242687A1, “1,3-dioxane-4,6-dione compound, and preparation method, pharmaceutical composition, and application thereof” (Shanghai Institute of Materia Medica of CAS, priority 2018, dated 2018).

The target of one assay is T1, SIRT1 (Homo sapiens, UniProt Q96EB6).
T1 sequence (Q96EB6 1-747): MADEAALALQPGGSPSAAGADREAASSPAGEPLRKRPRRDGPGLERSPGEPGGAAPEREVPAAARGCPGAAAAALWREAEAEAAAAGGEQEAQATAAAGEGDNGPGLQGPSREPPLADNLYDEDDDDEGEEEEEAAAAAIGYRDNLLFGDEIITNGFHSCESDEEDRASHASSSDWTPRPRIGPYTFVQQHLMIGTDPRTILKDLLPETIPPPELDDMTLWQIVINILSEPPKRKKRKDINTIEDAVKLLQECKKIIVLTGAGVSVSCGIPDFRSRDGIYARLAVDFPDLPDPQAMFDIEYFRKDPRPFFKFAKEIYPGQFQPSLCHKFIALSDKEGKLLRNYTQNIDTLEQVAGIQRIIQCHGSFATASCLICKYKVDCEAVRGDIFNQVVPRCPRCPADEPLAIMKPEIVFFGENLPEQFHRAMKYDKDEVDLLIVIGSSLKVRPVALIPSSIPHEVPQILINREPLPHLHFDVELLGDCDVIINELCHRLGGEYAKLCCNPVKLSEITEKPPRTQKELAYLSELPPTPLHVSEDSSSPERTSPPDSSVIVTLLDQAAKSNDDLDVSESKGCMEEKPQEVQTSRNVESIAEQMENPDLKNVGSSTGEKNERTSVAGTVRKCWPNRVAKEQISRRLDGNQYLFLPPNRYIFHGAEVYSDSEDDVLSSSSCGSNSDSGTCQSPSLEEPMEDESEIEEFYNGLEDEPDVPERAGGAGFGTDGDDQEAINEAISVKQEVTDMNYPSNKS
Kind of assay: SIRT1 enzyme activity test (deacetylase inhibition). The assay is classed as biochemical. The note with it: 1 μM SIRT1, 500 μM NAD+, 10 μM substrate peptide.

In assay [1] the test system is p53 acetylation levels in SH-SY5Y human neuroblastoma cells. In words: Effect of compounds on p53 acetylation level in cells (Western blot). The assay is classed as cell-based. The settings on record: ATRA-induced differentiation, compound 10 μM, 2 h, Figure 5. In general terms: Immunoblotting shows a protein as a band on a membrane.
The target of the next assay is T2, SIRT5 (Homo sapiens, UniProt Q9NXA8).
T2 sequence (Q9NXA8 37-310): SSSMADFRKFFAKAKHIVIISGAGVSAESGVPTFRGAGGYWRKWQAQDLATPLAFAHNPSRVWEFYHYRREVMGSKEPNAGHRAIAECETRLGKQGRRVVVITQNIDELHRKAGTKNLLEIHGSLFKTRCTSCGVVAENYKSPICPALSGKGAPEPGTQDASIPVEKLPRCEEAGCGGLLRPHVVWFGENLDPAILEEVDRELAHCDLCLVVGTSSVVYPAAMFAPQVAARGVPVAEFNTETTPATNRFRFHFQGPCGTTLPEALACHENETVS
Kind of assay: Inhibition of SIRT5 (as SIRT1 IC50 method).

Another assay has as its target T3, SIRT3 (Homo sapiens, UniProt Q9NTG7).
T3 sequence (Q9NTG7 1-399): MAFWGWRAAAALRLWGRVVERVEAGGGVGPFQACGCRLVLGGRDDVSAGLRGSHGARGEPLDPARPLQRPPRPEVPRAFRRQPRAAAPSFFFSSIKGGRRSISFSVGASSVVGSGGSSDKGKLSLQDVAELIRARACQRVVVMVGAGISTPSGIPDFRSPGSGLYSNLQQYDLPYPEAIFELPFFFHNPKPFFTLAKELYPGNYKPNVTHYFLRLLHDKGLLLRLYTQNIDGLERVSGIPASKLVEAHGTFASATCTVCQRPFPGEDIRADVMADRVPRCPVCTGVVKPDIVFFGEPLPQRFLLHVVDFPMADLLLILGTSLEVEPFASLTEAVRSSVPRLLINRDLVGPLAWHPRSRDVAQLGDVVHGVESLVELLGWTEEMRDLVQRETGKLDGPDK
Kind of assay: Inhibition of SIRT3 (as SIRT1 IC50 method).

In the next assay the target is T4, SIRT2 (Homo sapiens, UniProt Q8IXJ6).
T4 sequence (Q8IXJ6 1-389): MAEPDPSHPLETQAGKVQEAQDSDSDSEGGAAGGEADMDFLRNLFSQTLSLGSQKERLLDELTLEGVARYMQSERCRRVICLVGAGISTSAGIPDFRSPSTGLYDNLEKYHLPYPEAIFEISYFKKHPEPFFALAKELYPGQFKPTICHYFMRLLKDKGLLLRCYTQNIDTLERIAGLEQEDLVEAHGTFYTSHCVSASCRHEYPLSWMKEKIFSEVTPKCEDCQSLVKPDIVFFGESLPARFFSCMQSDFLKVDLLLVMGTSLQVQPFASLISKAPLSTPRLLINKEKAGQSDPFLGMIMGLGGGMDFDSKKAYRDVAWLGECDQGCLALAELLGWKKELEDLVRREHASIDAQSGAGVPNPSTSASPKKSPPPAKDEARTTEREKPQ
In words: Inhibition of SIRT2 (as SIRT1 IC50 method).

[2] abbreviates: Table 2, 37 °C, 30 min, read-out: IC50.
Where [3] appears, read: Table 3, SITR1 [sic], read-out: Inhibition of SIRT1 deacylation (IC50).

On to `O=C(COc1ccc(C=C2C(=O)OC(c3ccccc3)OC2=O)cc1)Nc1ccccc1` (stereo not drawn) [Compound S21, 2-{4-[(4,6-Dioxo-2-phenyl-1,3-dioxane-5-ylbenzylidene)methyl]phenoxy} -N-phenylacetamide], for which the IC50 (in general, the point on the concentration scale where inhibition reaches its midpoint) at SIRT1 (setting [2]) was determined as 4.51 ± 1.17 µM.
On the same count and under the same terms, next, `CC(C)Oc1ccccc1C=C1C(=O)OC(c2ccccc2)OC1=O` (stereo not drawn) [Compound S14, 5-(2-isopropoxybenzylidene) -2-phenyl-1,3-dioxane-4,6-dione]: 14 ± 2.01 µM.
With `O=C1OC(c2ccccc2)OC(=O)C1=Cc1cc(Cl)c(O)c(Cl)c1` (stereo not drawn) [Compound S15, 5-(3,5-dichloro-4-hydroxybenzylidene) -2-phenyl-1,3-dioxane-4,6-dione], in assay [1], the “effect on decrease of p53 acetylation level” value is listed as “抑制ATRA诱导的SH-SY5Y细胞分化过程中p53乙酰化水平降低”. Besides, at SIRT1 (setting [3]), the IC50 was 1.2 ± 0.09 µM.
On the same counts, the results for `COc1cc(C=C2C(=O)OC(c3ccccc3)OC2=O)cc(I)c1O` (stereo not drawn) [Compound S6, 5-(4-hydroxy-3-iodo-5-methoxybenzylidene) -2-phenyl-1,3-dioxane-4,6-dione] are “抑制ATRA诱导的SH-SY5Y细胞分化过程中p53乙酰化水平降低” and 0.89 ± 0.01 µM.
As to `COc1cc(C=C2C(=O)OC(C)(c3ccccc3)OC2=O)cc(I)c1O` (stereo not drawn) [Compound S2, 5-(4-hydroxy-3-iodo-5-methoxybenzylidene) -2-methyl-2-phenyl-1,3-dioxane-4,6-dione], the IC50 at SIRT1 (setting [2]) came out at 2.45 ± 0.37 µM.
Same read-out and setting: for `O=C1OC(c2ccccc2)OC(=O)C1=Cc1ccc(OCc2ccc3c(c2)OCO3)cc1` (stereo not drawn) [Compound S17, 5-[4-(1,3-Benzodioxolane-5-alkylmethoxy)benzylidene] -2-phenyl-1,3-dioxane-4,6-dione] the value was 3.41 ± 0.19 µM; for `COc1cc(OC)c(C=C2C(=O)OC(c3ccccc3)OC2=O)cc1Br` (stereo not drawn) [Compound S22, 5-(5-bromo-2,4-dimethoxybenzylidene) -2-phenyl-1,3-dioxane-4,6-dione], 4.89 ± 0.35 µM.
Consider `COc1cc(C=C2C(=O)OC(c3ccccc3)OC2=O)cc(Cl)c1O` (stereo not drawn) [Compound S10, 5-(3-chloro-4-hydroxy-5-methoxybenzylidene) -2-phenyl-1,3-dioxane-4,6-dione], for which the IC50 against SIRT5 stood at 32.5 ± 1.15 µM; on SIRT3 it was 204 ± 16.2 µM; at SIRT1 (setting [3]), 1.9 ± 0.53 µM; at SIRT2, 64.4 ± 7.09 µM. For the same compound, the “effect on decrease of p53 acetylation level” value in assay [1] is listed as “抑制ATRA诱导的SH-SY5Y细胞分化过程中p53乙酰化水平降低”.
Turning to `CC1(c2ccccc2)OC(=O)C(=Cc2ccccc2)C(=O)O1` (stereo not drawn) [Compound S8, 5-benzylidene-2-methyl-2-phenyl-1,3-dioxane-4,6-dione], the IC50 at SIRT1 (setting [2]) was more than 50 µM.
